Source: patent US6635628B2, “Methods of administering camptothecin compounds for the treatment of cancer with reduced side effects” (The George Washington University, priority 1998, dated 2003)
“Also recorded” adds a separate entry of the source. Like-named read-outs stand apart in the source and are kept apart here. Marks after values point to notes of the source that are not given here.

Assays:
[1] = CPT-11 metabolite formed by hepatic cytochrome P-450 3A; cited from earlier work
ileal cells = assay type: in vitro ADME, hamster
Description: (§1) The other drugs were dissolved in distilled water. […] DNP-SG was made from glutathione and CDNB (1-chloro-2,4-dinitro benzene) chemically. All other reagents were of analytical grade. Adult male Golden Syrian hamsters (6-8 weeks age), whose model presents a bile acid profile similar to that observed in human (28), were used.
(§2) Intestinal cells were isolated as previously described (28, 29). Briefly, male hamsters were anesthetized with sodium pentobarbital (Nembutol 70 mg/kg body weight). The entire intestine was removed. The intestinal lumen was washed with 37° C. Hank's solution. Sacs of the ileum (12.5 cm from cecum) and jejunum (remaining small intestine) were rinsed, as well as the intestinal sacs of the anal site of small intestine (12.5 cm from cecum) and oral site (the other small intestine). The sacs were rinsed with oxygenated buffer solution containing sodium citrate (96 mM NaCl, 1.5 mM KCl, 5.6 mM KH2PO4, 27 mM sodium citrate, pH 7.3), and incubated for 10 min in the same buffer at 37° C. The sacs were then emptied, filled with oxygenated buffer solution containing EDTA (140 mM NaCl, 16 mM Na2HPO4, 2 mM EDTA, 0.5 mM dithiothreitol, pH 7.3), incubated for 10 min at 37° C. Then each sac was placed onto a petri dish and gently vortexed for 1 min. The buffer containing intestinal cells was recovered in 50 mL of Hanks' solution, washed twice and adjusted at 10^6 cells/ml in Hanks' medium (cellular stock solution containing 0.5% bovine serum albumin, pH 7.4).
(§3) The cellular suspension of 0.95 ml was incubated for 15 min in a 37° C. water bath with stirring. Uptake was started by the addition of 0.05 ml PBS (at pH 3 or 9) containing labeled SN-38 or CPT-11 at 37° C. At various time intervals, 100 μL, sample aliquots were diluted into 3 mL of Hank's medium at 4° C. to stop the uptake. The stop solution containing the cells was filtered through a glass microfiber filter (Glass Fiber Filter Circles G4, Fisherbrand, Pa.) under vacuum (20 psi). The cells were washed once with 5 mL of 0.5% bovine serum albumin-containing Hanks' medium (4° C.) and once with 20 mL of Hanks' solution (4° C.). The filters were placed in a vial containing 4 mL of scintillation liquid (Ultra Gold, Packard, Conn.) and the radioactivity was counted in a β scintillation counter (LS3801, Beckman, Md.).
(§4) The effect of the metabolic inhibitor, 2,4 dinitrophenol (1 mM), was studied by adding this agent to the cells 3 min prior to either ^14C-CPT-11 or ^14C-SN-38 (2 μM). The effect of 20 mM of taurocholic acid (TCA) on the uptake of both CPT-11 and SN-38 was investigated following overnight incubation of ^14C-CPT-11 (20 μM) and ^14C-SN-38 (2 μM) in Hank's solution, at pH 7.4 and in the presence and absence of TCA. The effect of 200 μM of DNP-SG or SN-38-Glu was also studied by adding these agents to the cell preparation 7 min prior to either ^14C-CPT-11 (20 μM) and ^14C-SN-38 (2 μM).
(§5) The initial rate of uptake of CPT-11 or SN-38 was derived from the linear regression analysis of the respective regression line obtained from the plot of the uptake as a function of time. The initial rates of uptake were plotted against the corresponding concentration. The data were fitted by least-squares nonlinear regression analysis (SigmaStat, Jandel Scientific, CA), using the equation V=(Vmax·S)/(Km+S)+Kd·S where V represents the initial rate of uptake. Vmax is the maximum rate of uptake, Km is the apparent Michaelis constant, Kd is the rate of diffusion and S is the concentration of CPT-11 or SN-38.

[2] = test system: isolated intestinal cells from jejunum; assay type: in vitro ADME, hamster
Description: as §1, §2, §3, §4, §5

[3] = test system: intestinal cells from whole small-intestine; experiment: Uptake of 14C-labeled CPT-11 and SN-38 by intestinal cells, regions combined or not distinguished (TCA, pH, bicarbonate effects); settings: for uptake rate of the lactone compared with the carboxylate form: cells from both intestinal regions; for saturability of the uptake (predominant component): SN-38 concentrations lower than 2 μM
Description: By adding the drugs to Hank's solution containing intestinal cells from whole small-intestine, uptake studies were performed.
as §2, §3, §4
The effect of physiologic pH on the initial intestinal uptake rate of CPT-11 and SN-38 was investigated following overnight incubation of ^14C-CPT-11 (20 μM) and ^14C-SN-38 (2 μM) in phosphate buffered saline at pH 6.2, 6.8, 7.4 and 8, respectively.
as §5

[4] = assay type: physicochemical; settings: 1,000-molecular weight cut-off membrane
Text: Monomers were separated from micellar aggregates by ultrafiltration through a 1000-molecular weight cut-off membrane (YM1) as described in Materials and Methods. Values are the monomeric forms of the indicated metabolites, expressed as a percentage (%) of the concentration of the initial solution before ultrafiltration. Comparison between TCA and control was estimated by Mann-Whitney test. […] Abbreviations used: CPT lactone (CPT lact.); CPT carboxylate (CPT carb.); SN-38 lactone (SN lact.); and SN-38 carboxylate (SN carb.).

[5] = cited from earlier work
[6] = cited from earlier work; remark: listed apart in the source
[7] = bile of two men treated by cisplatin who received CPT-11 intravenously; cited from earlier work
[8] = bile acid micelles; cited from earlier work
[9] = 20 μM 14C-CPT-11, 2 μM 14C-SN-38
[10] = % of control, inhibitor 1 mM added 3 min before [14C]CPT-11 (20 μM), n=5
[11] = % of control, inhibitor 1 mM added 3 min before [14C]SN-38 (2 μM), n=5
[12] = % of control, inhibitor 200 μM added 7 min before [14C]CPT-11 (20 μM), n=5
[13] = % of control, inhibitor 200 μM added 7 min before [14C]SN-38 (2 μM), n=5

## CCc1c2c(nc3ccc(OC(=O)N4CCC(NCCCCC(=O)O)CC4)cc13)-c1cc3c(c(=O)n1C2)COC(=O)C3(O)CC (stereo not drawn) [7-ethyl-10-[4-N-(5-aminopentanoic acid)-1-piperidino]carbonyloxycamptothecin]
[1]
  antitumor activity weaker than SN-38: 500 fold

## CCc1c2c(nc3ccc(OC(=O)N4CCC(N5CCCCC5)CC4)cc13)-c1cc([C@@](O)(CC)C(=O)O)c(CO)c(=O)n1C2 [CPT-11 carboxylate]
Ileal cells; ileum, fit V=(Vmax·S)/(Km+S)+Kd·S, mean, read-out: Km (apparent Michaelis constant of uptake)
  Km: 50.5 µM
Ileal cells; ileum, nonlinear regression fit, mean
  Vmax (maximum rate of uptake): 157.3 p mol · 10 ^6 cells^−1 · min^−1
[2]; jejunum, fit V=(Vmax·S)/(Km+S)+Kd·S, mean, read-out: Km (apparent Michaelis constant of uptake)
  Km: 51.3 µM
[2]; jejunum, nonlinear regression fit, mean
  Vmax (maximum rate of uptake): 146.9 p mol · 10 ^6 cells^−1 · min^−1
[3]
  transport mechanism in intestinal cells: actively absorbed

## CCc1c2c(nc3ccc(OC(=O)N4CCC(N5CCCCC5)CC4)cc13)-c1cc3c(c(=O)n1C2)COC(=O)[C@]3(O)CC [CPT-11 lactone]
[3]
  transport mechanism in intestinal cells: passively transported
[3]; [9]
  uptake rate of the lactone compared with the carboxylate form: more rapidly taken up; also recorded: several times greater
[3]; jejunal and ileal cells
  Kd lower than that of SN-38 lactone: 1.8-2.5 fold
  saturability of the uptake (predominant component): non-saturable
[4]
  effect of TCA on % monomer concentration / association to TCA micelles: significantly decreased

## CCc1c2c(nc3ccc(OC(=O)N4CCC(N5CCCCC5)CC4)cc13)-c1cc3c(c(=O)n1C2)COC(=O)[C@]3(O)CC.Cl [CPT-11, (4S)-4,11-diethyl-4-hydroxy-9-[(4-piperidinopiperidino)carbonyloxy]1H-pyrano [3′,4′:6,7] indolizino[1,2-b]quinoline-3,14(4 h, 12H)dione hydrochloride]
[3]
  initial uptake rate at acidic pH (pH 6.2 and 6.8) versus neutral or alkaline pH (pH 7.4 and 8): several times greater
[3]; cells from jejunum and ileum combined, 14C-CPT-11 20 μM, 14C-SN-38 2 μM, pH 7.4, mean±SD, n=5
  initial uptake rate in the presence of 20 mM TCA: 48.5±10.8 % of control without TCA
[3]; pH 6.2 to 8, 20 μM 14C-CPT-11, 2 μM 14C-SN-38
  decrease of the uptake rate at a pH greater than 6.8: around 65%
[3]; pH adjusted to greater than 7
  uptake when HEPES of the Hank's buffer was replaced by sodium bicarbonate: decreased
[5]
  share in lactone form at pH 7.4: 13%
[6]; before adoption of loperimide therapy
  incidence of grade 4 diarrhea: 17%
[6]; following adoption of an aggressive loperimide therapy
  incidence of grade 4 diarrhea: 5%
[7]
  share of the biliary content: 75.6-91.9%

## N[C@@H](CCC(=O)N[C@@H](CSc1ccc([N+](=O)[O-])cc1[N+](=O)[O-])C(=O)NCC(=O)O)C(=O)O [DNP-SG, 2,4-dinitrophenyl-S-glutathione]
Ileal cells
  initial uptake rate of CPT-11 carboxylate, ileum: 105.8%
  initial uptake rate of SN-38 carboxylate, ileum: 28.5* %
[2]
  initial uptake rate of CPT-11 carboxylate, jejunum: 103.2%
  initial uptake rate of CPT-11 lactone, jejunum: 105.4%
  initial uptake rate of SN-38 carboxylate, jejunum: 32.0* %
  initial uptake rate of SN-38 lactone, jejunum: 78.8%
[3]
  effect of the added agent on the uptake rate of SN-38 lactone: not significantly affected
[3]; intestinal region not given
  effect of the added agent on the uptake of CPT-11 carboxylate: remained unchanged
  effect of the added agent on the uptake rate of CPT-11 lactone: not significantly affected

## O=[N+]([O-])c1ccc(O)c([N+](=O)[O-])c1 [Dinitrophenol, 2,4-dinitrophenol]
Ileal cells; [10]
  initial uptake rate of CPT-11 carboxylate, ileum: 29.2%
  initial uptake rate of CPT-11 lactone, ileum: 105.5%
Ileal cells; [11]
  initial uptake rate of SN-38 carboxylate, ileum: 30.8%
  initial uptake rate of SN-38 lactone, ileum: 134.9%
[2]; [10]
  initial uptake rate of CPT-11 carboxylate, jejunum: 22.6%
  initial uptake rate of CPT-11 lactone, jejunum: 94.1%
[2]; [11]
  initial uptake rate of SN-38 carboxylate, jejunum: 25.5%
  initial uptake rate of SN-38 lactone, jejunum: 96.1%
[3]; intestinal region not given
  effect of the added agent on the uptake rate of CPT-11 lactone: not significantly affected
  effect of the added agent on the uptake rate of SN-38 lactone: not significantly affected

## CCc1c2c(nc3ccc(O[C@@H]4O[C@H](C(=O)O)[C@@H](O)[C@H](O)[C@H]4O)cc13)-c1cc3c(c(=O)n1C2)COC(=O)[C@]3(O)CC [SN38-Glu, SN-38 β-glucuronide]
Ileal cells; [12]
  initial uptake rate of CPT-11 carboxylate, ileum: 93.9%
Ileal cells; [13]
  initial uptake rate of SN-38 carboxylate, ileum: 28.9* %
[2]; [12]
  initial uptake rate of CPT-11 carboxylate, jejunum: 108.9%
  initial uptake rate of CPT-11 lactone, jejunum: 88.9%
[2]; [13]
  initial uptake rate of SN-38 carboxylate, jejunum: 40.1* %
  initial uptake rate of SN-38 lactone, jejunum: 54.3%
[3]; intestinal region not given
  effect of the added agent on the uptake of CPT-11 carboxylate: remained unchanged
  effect of the added agent on the uptake rate of CPT-11 lactone: not significantly affected
  effect of the added agent on the uptake rate of SN-38 lactone: not significantly affected
[7]
  share of the biliary content: 7.3-18.9%

## CCc1c2c(nc3ccc(O)cc13)-c1cc3c(c(=O)n1C2)COC(=O)[C@]3(O)CC [SN-38 lactone]
[3]
  transport mechanism in intestinal cells: passively transported
[3]; [9]
  uptake rate of the lactone compared with the carboxylate form: more rapidly taken up; also recorded: several times greater
[3]; jejunal and ileal cells
  saturability of the uptake (predominant component): mostly non-saturable
[4]
  effect of TCA on % monomer concentration / association to TCA micelles: significantly decreased

## CC(C)CCC[C@@H](C)[C@H]1CC[C@H]2[C@@H]3CC=C4C[C@@H](O)CC[C@]4(C)[C@H]3CC[C@]12C [cholesterol]
[8]
  percentage of the monomer concentration (comparison values): 3%

## CCCCCCCC/C=C\CCCCCCCC(=O)O [oleic acid]
[8]
  percentage of the monomer concentration (comparison values): 2.3%
